Source: PubChem BioAssay (NCI)
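Growth conditions: 96-well plates. Treatment: test compound, 48 hours, 5 concentrations. Analysis: linear interpolation between bracketing concentrations; unreached endpoints set to highest concentration. The concentration for full growth arrest is given as TGI.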

Legend:
Assay in all cases: NCI tumour cell line growth inhibition, 48 h
OVCAR-4 ovarian = system: OVCAR-4 ovarian
MCF7 breast = system: MCF7 breast
SK-OV-3 ovarian = system: SK-OV-3 ovarian
HL-60(TB) leukemia = system: HL-60(TB) leukemia
SW-620 colon = system: SW-620 colon
U251 CNS = system: U251 CNS
LOX IMVI melanoma = system: LOX IMVI melanoma
MDA-N = system: MDA-N
EKVX NSCLC = system: EKVX NSCLC
M14 melanoma = system: M14 melanoma
SR leukemia = system: SR leukemia
NCI-H23 lung = system: NCI-H23 lung
786-0 renal = system: 786-0 renal
COLO 205 colon = system: COLO 205 colon
IGROV1 ovarian = system: IGROV1 ovarian
MALME-3M melanoma = system: MALME-3M melanoma
HS 578T breast = system: HS 578T breast
SK-MEL-5 melanoma = system: SK-MEL-5 melanoma
UACC-62 melanoma = system: UACC-62 melanoma
T-47D breast = system: T-47D breast
OVCAR-8 ovarian = system: OVCAR-8 ovarian
HCT-116 colon = system: HCT-116 colon
A549 NSCLC = system: A549 NSCLC
PC-3 prostate = system: PC-3 prostate
OVCAR-3 ovarian = system: OVCAR-3 ovarian
NCI-H460 lung = system: NCI-H460 lung
RPMI-8226 leukemia = system: RPMI-8226 leukemia
KM12 colon = system: KM12 colon
ACHN renal = system: ACHN renal
SF-268 CNS = system: SF-268 CNS
MDA-MB-435 = system: MDA-MB-435
CAKI-1 renal = system: CAKI-1 renal
SK-MEL-28 melanoma = system: SK-MEL-28 melanoma
HT29 colon = system: HT29 colon
MOLT-4 leukemia = system: MOLT-4 leukemia
SF-295 CNS = system: SF-295 CNS
HCC-2998 colon = system: HCC-2998 colon
SNB-75 CNS = system: SNB-75 CNS
SK-MEL-2 melanoma = system: SK-MEL-2 melanoma
NCI-H522 lung = system: NCI-H522 lung
NCI-H226 lung = system: NCI-H226 lung
MDA-MB-231 breast = system: MDA-MB-231 breast
SNB-19 CNS = system: SNB-19 CNS
UACC-257 melanoma = system: UACC-257 melanoma
TK-10 renal = system: TK-10 renal
SF-539 CNS = system: SF-539 CNS
CCRF-CEM leukemia = system: CCRF-CEM leukemia
RXF 393 renal = system: RXF 393 renal
OVCAR-5 ovarian = system: OVCAR-5 ovarian
NCI/ADR-RES ovarian = system: NCI/ADR-RES ovarian
HOP-92 NSCLC = system: HOP-92 NSCLC
K-562 leukemia = system: K-562 leukemia
DU-145 prostate = system: DU-145 prostate
BT-549 breast = system: BT-549 breast
HCT-15 colon = system: HCT-15 colon
SN12C renal = system: SN12C renal
HOP-62 NSCLC = system: HOP-62 NSCLC
A498 renal = system: A498 renal
UO-31 renal = system: UO-31 renal

Cc1nn(C(=O)c2ccncc2)c2c1C(c1ccccc1O)SC(N)=N2 (stereo not given)
TGI (OVCAR-4 ovarian): > 10 µM
TGI (MCF7 breast): > 10 µM
TGI (SK-OV-3 ovarian): > 10 µM
TGI (HL-60(TB) leukemia): > 10 µM
TGI (SW-620 colon): > 10 µM
TGI (U251 CNS): > 10 µM
TGI (LOX IMVI melanoma): > 10 µM
TGI (MDA-N): > 10 µM
TGI (EKVX NSCLC): > 10 µM
TGI (M14 melanoma): > 10 µM
TGI (SR leukemia): > 10 µM
TGI (NCI-H23 lung): > 10 µM
TGI (786-0 renal): > 10 µM
TGI (COLO 205 colon): > 10 µM
TGI (IGROV1 ovarian): > 10 µM
TGI (MALME-3M melanoma): > 10 µM
TGI (HS 578T breast): > 10 µM
TGI (SK-MEL-5 melanoma): > 10 µM
TGI (UACC-62 melanoma): > 10 µM
TGI (T-47D breast): > 10 µM
TGI (OVCAR-8 ovarian): > 10 µM
TGI (HCT-116 colon): > 10 µM
TGI (A549 NSCLC): > 10 µM
TGI (PC-3 prostate): > 10 µM
TGI (OVCAR-3 ovarian): > 10 µM
TGI (NCI-H460 lung): > 10 µM
TGI (RPMI-8226 leukemia): > 10 µM
TGI (KM12 colon): > 10 µM
TGI (ACHN renal): > 10 µM
TGI (SF-268 CNS): > 10 µM
TGI (MDA-MB-435): > 10 µM
TGI (CAKI-1 renal): > 10 µM
TGI (SK-MEL-28 melanoma): > 10 µM
TGI (HT29 colon): > 10 µM
TGI (MOLT-4 leukemia): > 10 µM
TGI (SF-295 CNS): > 10 µM
TGI (HCC-2998 colon): > 10 µM
TGI (SNB-75 CNS): > 10 µM
TGI (SK-MEL-2 melanoma): > 10 µM
TGI (NCI-H522 lung): > 10 µM
TGI (NCI-H226 lung): > 10 µM
TGI (MDA-MB-231 breast): > 10 µM
TGI (SNB-19 CNS): > 10 µM
TGI (UACC-257 melanoma): > 10 µM
TGI (TK-10 renal): > 10 µM
TGI (SF-539 CNS): > 10 µM
TGI (CCRF-CEM leukemia): > 10 µM
TGI (RXF 393 renal): > 10 µM
TGI (OVCAR-5 ovarian): > 10 µM
TGI (NCI/ADR-RES ovarian): > 10 µM
TGI (HOP-92 NSCLC): > 10 µM
TGI (K-562 leukemia): > 10 µM
TGI (DU-145 prostate): > 10 µM
TGI (BT-549 breast): > 10 µM
TGI (HCT-15 colon): > 10 µM
TGI (SN12C renal): > 10 µM
TGI (HOP-62 NSCLC): > 10 µM

CCC1CCN=C(Cn2cc(C)c(=O)[nH]c2=O)N1 (stereo not given)
TGI (MCF7 breast): > 100 µM
TGI (SK-OV-3 ovarian): > 100 µM
TGI (SW-620 colon): > 100 µM
TGI (U251 CNS): > 100 µM
TGI (LOX IMVI melanoma): > 100 µM
TGI (MDA-N): > 100 µM
TGI (A498 renal): > 100 µM
TGI (EKVX NSCLC): > 100 µM
TGI (M14 melanoma): > 100 µM
TGI (NCI-H23 lung): > 100 µM
TGI (786-0 renal): > 100 µM
TGI (COLO 205 colon): > 100 µM
TGI (IGROV1 ovarian): > 100 µM
TGI (MALME-3M melanoma): > 100 µM
TGI (HS 578T breast): > 100 µM
TGI (SK-MEL-5 melanoma): > 100 µM
TGI (UACC-62 melanoma): > 100 µM
TGI (T-47D breast): > 100 µM
TGI (OVCAR-8 ovarian): > 100 µM
TGI (HCT-116 colon): > 100 µM
TGI (A549 NSCLC): > 100 µM
TGI (PC-3 prostate): > 100 µM
TGI (UO-31 renal): > 100 µM
TGI (NCI-H460 lung): > 100 µM
TGI (ACHN renal): > 100 µM
TGI (SF-268 CNS): > 100 µM
TGI (SK-MEL-28 melanoma): > 100 µM
TGI (HT29 colon): > 100 µM
TGI (SF-295 CNS): > 100 µM
TGI (HCC-2998 colon): > 100 µM
TGI (SNB-75 CNS): > 100 µM
TGI (SK-MEL-2 melanoma): > 100 µM
TGI (NCI-H522 lung): > 100 µM
TGI (NCI-H226 lung): > 100 µM
TGI (MDA-MB-231 breast): > 100 µM
TGI (SNB-19 CNS): > 100 µM
TGI (UACC-257 melanoma): > 100 µM
TGI (TK-10 renal): > 100 µM
TGI (CCRF-CEM leukemia): > 100 µM
TGI (RXF 393 renal): > 100 µM
TGI (OVCAR-5 ovarian): > 100 µM
TGI (NCI/ADR-RES ovarian): > 100 µM
TGI (HOP-92 NSCLC): > 100 µM
TGI (DU-145 prostate): > 100 µM
TGI (BT-549 breast): > 100 µM
TGI (HCT-15 colon): > 100 µM
TGI (SN12C renal): > 100 µM
TGI (HOP-62 NSCLC): > 100 µM
